Experimental data as given in patent US20070049564A1 (Wyeth, priority 2005, published 2007).
In brackets after ≈: the same amount, converted by molar mass. Read-outs that look alike come from different tables or passages of the source.

Columns and labels:
E. coli GC 2236 = test: MIC, broth microdilution; conditions: Escherichia coli
E. coli GC 2231 = test: MIC, broth microdilution; conditions: Escherichia coli
E. coli GC 2235 = test: MIC, broth microdilution; conditions: Escherichia coli
E. coli GC 2232 = test: MIC, broth microdilution; conditions: Escherichia coli
E. coli GC 2234 = test: MIC, broth microdilution; conditions: Escherichia coli
E. coli GC 4559 = test: MIC, broth microdilution; conditions: Escherichia coli
S. typhimurium GC 2172 = test: MIC, broth microdilution; conditions: Salmonella enterica, TYPHIMURIUM
S. aureus GC 6466 = test: MIC, broth microdilution; conditions: Staphylococcus aureus
S. aureus GC 4536 = test: MIC, broth microdilution; conditions: Staphylococcus aureus
S. aureus GC 2216 = test: MIC, broth microdilution; conditions: Staphylococcus aureus
E. faecalis GC 4555 = test: MIC, broth microdilution; conditions: Enterococcus faecalis
E. faecalis GC 2242 = test: MIC, broth microdilution; conditions: Enterococcus faecalis
E. faecium GC 4556 = test: MIC, broth microdilution; conditions: Enterococcus faecium
S. pneumoniae* GC 4465 = test: MIC, broth microdilution; conditions: Streptococcus pneumoniae
S. pneumoniae+ GC 4465 = test: MIC, broth microdilution; conditions: Streptococcus pneumoniae
S. pyogenes GC 4563 = test: MIC, broth microdilution; conditions: Streptococcus pyogenes
S. agalactiae GC 4564 = test: MIC, broth microdilution; conditions: Streptococcus agalactiae
E. coli = test: Range of MIC for E. coli strains; conditions: Escherichia coli
Staph. = test: Range of MIC for Staph. strains, including MRSA; conditions: Staphylococcus aureus
[1] = read-out: MINIMAL INHIBITORY CONCENTRATION MIC, Human Serum
[2] = read-out: MINIMAL INHIBITORY CONCENTRATION MIC, Mouse Serum
[3] = read-out: MINIMAL INHIBITORY CONCENTRATION MIC, Water

MIC (E. coli GC 2236; GC2236, read-out: MINIMAL INHIBITORY CONCENTRATION MIC, Human Serum): > 64 µg/mL | MIC (E. coli GC 2236; GC2236, read-out: MINIMAL INHIBITORY CONCENTRATION MIC, Mouse Serum): > 64 µg/mL | MIC (E. coli GC 2236; GC2236, read-out: MINIMAL INHIBITORY CONCENTRATION MIC, Water): > 64 µg/mL | MIC (E. coli GC 2231; GC2231, read-out: MINIMAL INHIBITORY CONCENTRATION MIC, Human Serum): > 64 µg/mL | MIC (E. coli GC 2231; GC2231, read-out: MINIMAL INHIBITORY CONCENTRATION MIC, Mouse Serum): > 64 µg/mL | MIC (E. coli GC 2231; GC2231, read-out: MINIMAL INHIBITORY CONCENTRATION MIC, Water): > 64 µg/mL | MIC (E. coli GC 2235; GC2235, read-out: MINIMAL INHIBITORY CONCENTRATION MIC, Human Serum): > 64 µg/mL | MIC (E. coli GC 2235; GC2235, read-out: MINIMAL INHIBITORY CONCENTRATION MIC, Mouse Serum): > 64 µg/mL | MIC (E. coli GC 2235; GC2235, read-out: MINIMAL INHIBITORY CONCENTRATION MIC, Water): > 64 µg/mL | MIC (E. coli GC 2232; GC2232, read-out: MINIMAL INHIBITORY CONCENTRATION MIC, Human Serum): > 64 µg/mL | MIC (E. coli GC 2232; GC2232, read-out: MINIMAL INHIBITORY CONCENTRATION MIC, Mouse Serum): > 64 µg/mL | MIC (E. coli GC 2232; GC2232, read-out: MINIMAL INHIBITORY CONCENTRATION MIC, Water): > 64 µg/mL | MIC (E. coli GC 2234; GC2234, read-out: MINIMAL INHIBITORY CONCENTRATION MIC, Human Serum): > 64 µg/mL | MIC (E. coli GC 2234; GC2234, read-out: MINIMAL INHIBITORY CONCENTRATION MIC, Mouse Serum): > 64 µg/mL | MIC (E. coli GC 2234; GC2234, read-out: MINIMAL INHIBITORY CONCENTRATION MIC, Water): > 64 µg/mL | MIC (E. coli GC 4559; GC4559, read-out: MINIMAL INHIBITORY CONCENTRATION MIC, Human Serum): > 64 µg/mL | MIC (E. coli GC 4559; GC4559, read-out: MINIMAL INHIBITORY CONCENTRATION MIC, Mouse Serum): 64 µg/mL (≈ 93.3 µM) | MIC (E. coli GC 4559; GC4559, read-out: MINIMAL INHIBITORY CONCENTRATION MIC, Water): > 64 µg/mL | MIC (S. typhimurium GC 2172; [1]): > 64 µg/mL | MIC (S. typhimurium GC 2172; [2]): > 64 µg/mL | MIC (S. typhimurium GC 2172; [3]): > 64 µg/mL | MIC (S. aureus GC 6466; GC6466, read-out: MINIMAL INHIBITORY CONCENTRATION MIC, Human Serum): 4 µg/mL (≈ 5.83 µM) | MIC (S. aureus GC 6466; GC6466, read-out: MINIMAL INHIBITORY CONCENTRATION MIC, Mouse Serum): 4 µg/mL (≈ 5.83 µM) | MIC (S. aureus GC 6466; GC6466, read-out: MINIMAL INHIBITORY CONCENTRATION MIC, Water): 8 µg/mL (≈ 11.7 µM) | MIC (S. aureus GC 4536; GC4536, read-out: MINIMAL INHIBITORY CONCENTRATION MIC, Human Serum): 4 µg/mL (≈ 5.83 µM) | MIC (S. aureus GC 4536; GC4536, read-out: MINIMAL INHIBITORY CONCENTRATION MIC, Mouse Serum): 4 µg/mL (≈ 5.83 µM) | MIC (S. aureus GC 4536; GC4536, read-out: MINIMAL INHIBITORY CONCENTRATION MIC, Water): 4 µg/mL (≈ 5.83 µM) | MIC (S. aureus GC 2216; GC2216, read-out: MINIMAL INHIBITORY CONCENTRATION MIC, Human Serum): 4 µg/mL (≈ 5.83 µM) | MIC (S. aureus GC 2216; GC2216, read-out: MINIMAL INHIBITORY CONCENTRATION MIC, Mouse Serum): 4 µg/mL (≈ 5.83 µM) | MIC (S. aureus GC 2216; GC2216, read-out: MINIMAL INHIBITORY CONCENTRATION MIC, Water): 4 µg/mL (≈ 5.83 µM) | MIC (E. faecalis GC 4555; GC4555, read-out: MINIMAL INHIBITORY CONCENTRATION MIC, Human Serum): 4 µg/mL (≈ 5.83 µM) | MIC (E. faecalis GC 4555; GC4555, read-out: MINIMAL INHIBITORY CONCENTRATION MIC, Mouse Serum): 4 µg/mL (≈ 5.83 µM) | MIC (E. faecalis GC 4555; GC4555, read-out: MINIMAL INHIBITORY CONCENTRATION MIC, Water): 4 µg/mL (≈ 5.83 µM) | MIC (E. faecalis GC 2242; GC2242, read-out: MINIMAL INHIBITORY CONCENTRATION MIC, Human Serum): 4 µg/mL (≈ 5.83 µM) | MIC (E. faecalis GC 2242; GC2242, read-out: MINIMAL INHIBITORY CONCENTRATION MIC, Mouse Serum): 2 µg/mL (≈ 2.92 µM) | MIC (E. faecalis GC 2242; GC2242, read-out: MINIMAL INHIBITORY CONCENTRATION MIC, Water): 4 µg/mL (≈ 5.83 µM) | MIC (E. faecium GC 4556; GC4556, read-out: MINIMAL INHIBITORY CONCENTRATION MIC, Human Serum): 4 µg/mL (≈ 5.83 µM) | MIC (E. faecium GC 4556; GC4556, read-out: MINIMAL INHIBITORY CONCENTRATION MIC, Mouse Serum): 4 µg/mL (≈ 5.83 µM) | MIC (E. faecium GC 4556; GC4556, read-out: MINIMAL INHIBITORY CONCENTRATION MIC, Water): 4 µg/mL (≈ 5.83 µM) | MIC (S. pneumoniae* GC 4465; [1]): 4 µg/mL (≈ 5.83 µM) | MIC (S. pneumoniae* GC 4465; [2]): 4 µg/mL (≈ 5.83 µM) | MIC (S. pneumoniae* GC 4465; [3]): 4 µg/mL (≈ 5.83 µM) | MIC (S. pneumoniae+ GC 4465; [1]): 8 µg/mL (≈ 11.7 µM) | MIC (S. pneumoniae+ GC 4465; [2]): 4 µg/mL (≈ 5.83 µM) | MIC (S. pneumoniae+ GC 4465; [3]): 8 µg/mL (≈ 11.7 µM) | MIC (S. pyogenes GC 4563; GC4563, read-out: MINIMAL INHIBITORY CONCENTRATION MIC, Human Serum): 4 µg/mL (≈ 5.83 µM) | MIC (S. pyogenes GC 4563; GC4563, read-out: MINIMAL INHIBITORY CONCENTRATION MIC, Mouse Serum): 4 µg/mL (≈ 5.83 µM) | MIC (S. pyogenes GC 4563; GC4563, read-out: MINIMAL INHIBITORY CONCENTRATION MIC, Water): 4 µg/mL (≈ 5.83 µM) | MIC (S. agalactiae GC 4564; GC4564, read-out: MINIMAL INHIBITORY CONCENTRATION MIC, Human Serum): 8 µg/mL (≈ 11.7 µM) | MIC (S. agalactiae GC 4564; GC4564, read-out: MINIMAL INHIBITORY CONCENTRATION MIC, Mouse Serum): 8 µg/mL (≈ 11.7 µM) | MIC (S. agalactiae GC 4564; GC4564, read-out: MINIMAL INHIBITORY CONCENTRATION MIC, Water): 8 µg/mL (≈ 11.7 µM) | MIC (E. coli; read-out: Minimum inhibitory concentration (MIC), E. coli (Human Serum)): > 64 µg/mL | MIC (E. coli; read-out: Minimum inhibitory concentration (MIC), E. coli (water)): > 64 µg/mL | MIC (E. coli; read-out: Range of MIC, E. coli (Water)): > 64 µg/mL | MIC (Staph.; MRSA, read-out: Range of MIC, Staph (Mouse Serum)): 4 µg/mL (≈ 5.83 µM) | MIC (Staph.; MRSA, read-out: Range of MIC, Staph (Water)): 4 to 8 µg/mL (≈ 5.83 to 11.7 µM) | MIC (Staph.; read-out: Minimum inhibitory concentration (MIC), Staph (Human Serum)): 2 to 4 µg/mL (≈ 2.92 to 5.83 µM) | MIC (Staph.; read-out: Minimum inhibitory concentration (MIC), Staph (Water)): 4 to 8 µg/mL (≈ 5.83 to 11.7 µM)
SMILES: CC(C)COC(=O)N(CC(=O)Nc1cc(N(C)C)c2c(c1O)C(=O)C1=C(O)[C@]3(O)C(=O)C(C(N)=O)=C(O)[C@@H](N(C)C)[C@@H]3C[C@@H]1C2)C(C)(C)C [Example 59, isobutyl 2-{[(5aR,6aS,7S,10aS)-9-(aminocarbonyl)-4,7-bis(dimethylamino)-1,8,10a,11-tetrahydroxy-10,12-dioxo-5,5a,6,6a,7,10,10a,12-octahydrotetracen-2-yl]amino}-2-oxoethyl(tert-butyl)carbamate]
